Measurements published in patent US9890369B2 (priority 2013, dated 2018).
Several values for one entry are separate records, joined by “and”; a condition that tells them apart may be missing. Identical values can stand only once.

Legend:
CHO K1 cells (WTP4) = assay type: cell-based, Chinese hamster
CHO K1 cells = assay type: cell-based, Chinese hamster
HeLa cells = assay type: cell-based, human

With `CN[C@@H]1C[C@H]2O[C@@](C)([C@@H]1OC)n1c3ccccc3c3c4c(c5c6ccccc6n2c5c31)C(=O)NC4` [Staurosporine, staurosporine] the “% G0/G1” value (CHO K1 cells (WTP4)) was 42.9% and 41.8%, the “% G2/M” value (CHO K1 cells (WTP4)) was 13.6% and 12.2% and the “apoptosis induction by TUNEL staining (in words)” value (CHO K1 cells) was “complete conversion of cells”. For the same compound, the “apoptosis induction by PARP cleavage” value (HeLa cells) was “apoptosis induction”.
